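Tested at 5 concentrations; 48 h exposure; 96-well plates; endpoints linearly interpolated, else capped at highest concentration. Here, GI50 denotes the concentration required for 50% inhibition of growth. TGI is the concentration that stops growth completely.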
How the values were obtained:
Test in all cases: growth of human tumour cells (NCI), 48 h
BT-549 breast = system: BT-549 breast
MDA-MB-231 breast = system: MDA-MB-231 breast
SF-268 CNS = system: SF-268 CNS
HT29 colon = system: HT29 colon
A498 renal = system: A498 renal
SK-MEL-28 melanoma = system: SK-MEL-28 melanoma
OVCAR-5 ovarian = system: OVCAR-5 ovarian
786-0 renal = system: 786-0 renal
A549 NSCLC = system: A549 NSCLC
SNB-19 CNS = system: SNB-19 CNS
MALME-3M melanoma = system: MALME-3M melanoma

Row | SMILES | TGI (BT-549 breast) | TGI (MDA-MB-231 breast) | TGI (SF-268 CNS) | TGI (HT29 colon) | TGI (A498 renal) | TGI (SK-MEL-28 melanoma) | TGI (OVCAR-5 ovarian) | TGI (786-0 renal) | TGI (A549 NSCLC) | TGI (SNB-19 CNS) | TGI (MALME-3M melanoma) | GI50 (BT-549 breast) | GI50 (MDA-MB-231 breast) | GI50 (SNB-19 CNS) | GI50 (SF-268 CNS) | GI50 (HT29 colon) | GI50 (A498 renal) | GI50 (SK-MEL-28 melanoma) | GI50 (OVCAR-5 ovarian)
1 | O=C(NI1OC(=O)c2ccccc21)c1ccc(Cl)cc1 | > 100 µM | > 100 µM | > 100 µM | > 100 µM | > 100 µM | > 100 µM | > 100 µM | > 100 µM | > 100 µM |  |  |  |  |  |  |  |  |  | 
2 | O=c1[nH]nc(-c2ccccc2)c2[nH]c3c4ccccc4ccc3c12 |  |  | > 100 µM |  | > 100 µM |  |  | 48.1 µM | > 100 µM | > 100 µM | > 100 µM |  |  |  |  |  |  |  | 
3 | C=CC(CCc1ccc(C(=O)OCC)cc1)c1c(N)nc(N)[nH]c1=O (stereo unspecified) | > 100 µM | > 100 µM | > 100 µM | > 100 µM | > 100 µM | > 100 µM |  | > 100 µM | > 100 µM | > 100 µM | > 100 µM |  |  |  |  |  |  |  | 
4 | O=Cc1ccc2c(c1)CC1(Cc3ccccc3C1)C2 |  | 30.4 µM |  | 51.2 µM | 83.7 µM |  | > 100 µM | 29.9 µM | > 100 µM |  | 36.3 µM |  |  |  |  |  |  |  | 
5 | CCOP(C)(=O)C(N)Cc1ccc(OC)c(OC)c1 (stereo unspecified) | > 100 µM | > 100 µM | > 100 µM | > 100 µM | > 100 µM | > 100 µM |  | > 100 µM | > 100 µM | > 100 µM | > 100 µM |  |  |  |  |  |  |  | 
6 | CCN(CC)C(=O)Cn1c(C)cc2ccccc21 | > 100 µM | > 100 µM | > 100 µM | > 100 µM |  | > 100 µM | > 100 µM | > 100 µM | > 100 µM | > 100 µM | > 100 µM |  |  |  |  |  |  |  | 
7 | CC1NC(=O)CC(c2ccccc2)N(N=O)C1c1ccccc1 (stereo unspecified) |  |  | > 100 µM | > 100 µM | 52.3 µM | > 100 µM | > 100 µM |  | > 100 µM | > 91.3 µM | > 100 µM |  |  |  |  |  |  |  | 
8 | NC(Cc1ccccc1)C(=O)N[C@H]1c2ccsc2/C(=N/O)[C@H]1O (stereo partly specified) | > 100 µM | > 100 µM |  | > 100 µM | > 100 µM | > 100 µM | > 100 µM |  | > 100 µM |  | > 100 µM |  |  |  |  |  |  |  | 
9 | CNc1ccc(C(=O)CC(O)CCC(C)C2OC(=O)CC(O)CC(=O)CC(O)CC(O)CC(O)CC(O)CC3(O)CC(O)C(C(=O)OC)C(CC(O[C@@H]4O[C@H](C)[C@@H](O)[C@H](N)[C@@H]4O)/C=C/C=C/C=C/C=C/C=C/C=C/C=C/C2C)O3)cc1 (stereo partly specified) | > 100 µM | > 100 µM | 7.46 µM | 24.7 µM | 2.89 µM | 2.53 µM | > 100 µM |  |  | > 100 µM |  | 3.45 µM | 2.88 µM | 3.82 µM | 2.82 µM | 3.63 µM | 1.23 µM | 1.12 µM | 3.7 µM
10 | O=C1/C(=C/c2ccc([N+](=O)[O-])cc2)C(=O)N(c2ccccc2)C1c1ccccc1 (stereo unspecified) | > 10 µM | > 10 µM | > 10 µM | > 10 µM | > 10 µM | > 10 µM | > 10 µM | > 10 µM | > 10 µM | > 10 µM |  |  |  |  |  |  |  |  | 
11 | Cc1ccc(SCC(CF)OC(C)n2cnc3c(=O)[nH]c(N)nc32)cc1 (stereo unspecified) | > 100 µM | > 100 µM | > 100 µM | > 100 µM |  | > 100 µM | > 100 µM | > 100 µM | > 100 µM | > 100 µM | > 100 µM |  |  |  |  |  |  |  | 
12 | Nc1nc(N)c2ncn(-c3ccc(Cl)cc3)c2n1 |  | > 100 µM |  | > 100 µM | 83.5 µM | > 100 µM | > 100 µM | > 100 µM | > 100 µM |  | > 100 µM |  |  |  |  |  |  |  | 
13 | CCOC(=O)C(=Cc1[nH]c2ccccc2c1-c1c[nH]c2ccccc12)C(=O)OCC | 33.1 µM | 39.3 µM | 30.5 µM | 17.5 µM | 28.6 µM |  | 30.3 µM | 7.15 µM | 35.9 µM | 28.3 µM | 34.4 µM |  |  |  |  |  |  |  | 
14 | O=C1CCC(c2ccc(Cl)cc2)=NN1c1nsc2ccccc12 |  |  | > 100 µM | > 100 µM |  | > 100 µM | > 100 µM |  | > 100 µM | > 100 µM |  |  |  |  |  |  |  |  | 
15 | COC(CNC(=O)C(C)NC(=O)CCc1ccccc1)OC (stereo unspecified) | > 100 µM | > 100 µM | > 100 µM | > 100 µM |  | > 100 µM | > 100 µM | > 100 µM | > 100 µM | > 100 µM | > 100 µM |  |  |  |  |  |  |  | 
16 | CC(C)=CCC/C(C)=C/C=C/C(C)=C/C=C/C(C)=C/C=C/C=C(C)/C=C/C=C(C)/C=C/[C@H]1C(C(C)(C)O)CC[C@]1(C)O (stereo partly specified) |  | 66.9 µM | 42.4 µM | 86.2 µM | 84.8 µM | 41.9 µM | > 100 µM | 46.8 µM |  |  |  |  |  |  |  |  |  |  | 
17 | Cc1ccc2c(c1)C(C(=O)N[C@@H]1C(=O)N3[C@@H]1SC(C)(C)[C@@H]3C(=O)O)OCCC2 (stereo partly specified) | > 100 µM | > 100 µM | > 100 µM | > 100 µM | > 100 µM | > 100 µM | > 100 µM | > 100 µM | > 100 µM | > 100 µM |  |  |  |  |  |  |  |  | 
18 | O=C1/C(=N/O)Cc2c(Br)ccc(Br)c21 |  | > 100 µM | > 100 µM | > 100 µM | > 100 µM | > 100 µM | > 100 µM | > 100 µM |  |  |  |  |  |  |  |  |  |  | 
19 | C[C@]12CCC(=O)O[C@H]1CCCCO2 |  | > 100 µM | > 100 µM | > 100 µM | > 100 µM | > 100 µM | > 100 µM | > 100 µM | > 100 µM |  | > 100 µM |  |  |  |  |  |  |  | 
20 | CCCCN1C(=O)N(c2ccc(OCC)cc2)C2N(CCCC)C1C(C)(C)C2(C)C (stereo unspecified) | > 100 µM | > 100 µM | 67.7 µM | > 100 µM | > 100 µM | > 100 µM |  | > 100 µM | > 100 µM | > 100 µM | 73.1 µM |  |  |  |  |  |  |  | 
21 | CCN(CC)C(=S)N/N=C(/C)c1cccc(/C(C)=N\NC(=S)N(CC)CC)n1 |  | 7.64 µM | 7.47 µM | 13.2 µM | 4.16 µM | 3.88 µM | 20.8 µM | 11.5 µM | 11.3 µM | 18.4 µM | 7.41 µM |  |  |  |  |  |  |  | 
22 | O=C1CC(=Nc2ccc(Cl)cc2)C(c2ccccc2)N1c1ccccc1 (stereo unspecified) | 41.6 µM | 85.2 µM | > 100 µM | 37.4 µM | > 100 µM | > 100 µM |  | > 100 µM | > 100 µM | > 100 µM | 90.8 µM |  |  |  |  |  |  |  | 
